Where two headings read alike, the source gives them in different places.
Columns and labels:
[1] = system: V. harveyi reporter strain BB170 (Sensor 1-, Sensor 2+); assay type: cell-based, Vibrio harveyi
Method: Cell-free culture fluids from E. coli, S. typhimurium and V. harveyi strains were tested for the presence of signaling substances that could induce luminescence in the V. harveyi reporter strain BB170 or BB886. […] The microtiter dishes were shaken in a rotary shaker at 175 rpm at 30° C.
The cell density was measured by diluting the same aliquots of cells used for measuring luminescence, spreading the dilutions onto solid LM medium, incubating the plates overnight at 30° C., and counting the resulting colonies the following day. […] Cell-free culture supernatants from V. harveyi or S. typhimurium strains were added to a final concentration of 10% (v/v) at the time of the first measurement. In control experiments, 10% (v/v) of AB medium, LB medium or LB medium containing 0.5% glucose was added instead of cell-free culture fluids.

[2] = system: rck::MudJ fusion in S. typhimurium (sdiA+ and sdiA-); test: SdiA regulated rck::MudJ fusion, galactosidase; assay type: cell-based; details: addition of AI-2 from E. coli or S. typhimurium, 2 h
Method: For ftsQ regulation in E. coli, the plasmids pMS207 and pMS209 were transformed into E. coli strain MC4100 (Silhavy et al., 1984, supra), and the transformants were grown overnight in LB containing 100 mg/L ampicillin at 30° C. with aeration. For rck regulation, S. typhimurium strains BA1105 (rck::MudJ) and BA1305 (rck::MudJ sdiA) were grown overnight in LB containing 100 mg/L kanamycin at 30° C. with aeration. The overnight cultures were diluted 20-fold into fresh medium and grown for an additional 4.5 h. At this time, each culture was divided into five identical aliquots and 10% (v/v) of one of the following was added to each aliquot: LB, 0.4 M NaCl, […] osmotic shock fluids from S. typhimurium LT2, E. coli 0157 or E. coli strain DH5 (negative control). The osmotic shock fluids were prepared as described above, following pre-growth of the S. typhimurium LT2 and E. coli in LB containing 0.5% glucose for 6 h. The cell suspensions were incubated at 30° C. for 2 h, after which standard-galactosidase reactions were performed on the samples (Miller, A Short Course in Bacterial Genetics, Cold Spring Harbor Laboratory Press, 1992).

[3] = system: V. harveyi luxN, luxS double mutant reporter strain; test: V. harveyi luxN, luxS double mutant reporter strain luminescence assay; assay type: cell-based, Vibrio harveyi; details: AI-1 from MM30 and AI-2 from BB152 culture fluids
Method: Verification that the luxN, luxS Double Mutant Responds to AI-2. […] This was verified in a luminescence assay for response to V. harveyi AI-1 and AI-2. V. harveyi strain MM30 (luxS::Tn5) which is phenotypically AI-1^+, AI-2^−, and V. harveyi strain BB152 (luxM::Tn5) which is phenotypically AI-1^−, AI-2^+ were used as the sources of AI-1 and AI-2 respectively. The AI-1 and AI-2 present in culture fluids of these strains was tested for stimulation of light production of the V. harveyi luxN, luxS double mutant reporter strain. In this assay, autoinducer preparations from MM30, BB152 or sterile medium controls were added to the wells of microtiter plates, followed by the addition of the V. harveyi reporter strain. The resulting light production was monitored using a liquid scintillation counter in the chemiluminescence mode. Maximal stimulation of light production in the V. harveyi luxN, luxS reporter strain was compared to that produced by the Sensor 1^+, Sensor 2^− V. harveyi strain BB886 and the Sensor 1^−, Sensor 2^+ V. harveyi strain BB170. These two V. harveyi strains are routinely used in this assay as reporters of AI-1 and AI-2 activity respectively.

[4] = Stability of the signaling activity (acid, base, heat, storage); assay type: physicochemical
[5] = system: ftsQ1p2p-lacZ fusion in E. coli MC4100/pMS207; test: SdiA regulated ftsQ1p2p-lacZ reporter, galactosidase; assay type: cell-based; details: 10% (v/v) 0.4 M NaCl osmotic shock fluids containing AI-2 activity, 2 h
From the text: Analysis of the effect of autoinducer on SdiA regulated gene expression. A sequence that includes the ftsQ1p and ftsQ2p promoters (Wang et al., 1991, supra) was amplified from E. coli MG1655 chromosomal DNA using the following primers: ftsQ1p, 5′-[…]-3′ (SEQ ID NO: 19); ftsQ2p, 5′-[…]-3′ (SEQ ID NO: 20). The amplified product contained both the ftsQ promoters and the first 14 codons of the ftsQ gene flanked by BamHI and Bg1II sites. The ftsQ1p2p PCR product was cloned into the BamHI site of vector pMLB 1034 (Silhavy et al., Experiments with Gene Fusions, Cold Spring Harbor Press, 1984) to generate a lacZ fusion that contained the promoters, ribosome binding site, and initiation codon of ftsQ. A correctly oriented clone, pMS207, and a clone containing the ftsQ1p2p insert in the opposite orientation, pMS209, were chosen for further analysis. Both inserts were sequenced to ensure that no errors were introduced during the PCR reaction.
For ftsQ regulation in E. coli, the plasmids pMS207 and pMS209 were transformed into E. coli strain MC4100 (Silhavy et al., 1984, supra), and the transformants were grown overnight in LB containing 100 mg/L ampicillin at 30° C. with aeration. For rck regulation, S. typhimurium strains BA1105 (rck::MudJ) and BA1305 (rck::MudJ sdiA) were grown overnight in LB containing 100 mg/L kanamycin at 30° C. with aeration. […]

[6] = system: V. harveyi reporter strain BB886 (Sensor 1+, Sensor 2-); test: V. harveyi BB886 luminescence bioassay (AI-1 / Signaling System 1); assay type: cell-based, Vibrio harveyi; details: non self-stimulating sensor-1+, sensor-2- mutant (BB886)
Method: Assay for production of signaling compounds. Cell-free culture fluids from E. coli, S. typhimurium and V. harveyi strains were tested for the presence of signaling substances that could induce luminescence in the V. harveyi reporter strain BB170 or BB886. In the assays, 10 1 of cell-free culture fluids from E. coli AB1157, E. coli DH5, and S. typhimurium LT2 strains grown and harvested as described above were added to 96-well microtiter dishes. The V. harveyi reporter strain BB170 or BB886 was grown for 16 h at 30° C. with aeration in AB medium, diluted 1:5000 into fresh AB medium, and 90 1 of the diluted cells were added to the wells containing the E. coli and S. typhimurium cell-free culture fluids. Positive control wells contained 10 1 of cell-free culture fluid from strain V. harveyi BB152 (Autoinducer-1^−, Autoinducer-2^+) or V. harveyi BB 120 (Autoinducer-1^+, Autoinducer-2^+). Negative control wells contained 10 1 of sterile growth medium. […] Every hour, light production was measured using a Wallac Model 1450 Microbeta Plus liquid scintillation counter in the chemiluminescence mode. The V. harveyi cell density was measured by diluting the same aliquots of cells used for measuring luminescence, spreading the dilutions onto solid LM medium (Bassler et al., 1993, supra), incubating the plates overnight at 30C., and counting the resulting colonies the following day. […]

O=C(O)CCC(=O)C(=O)O [-ketoglutarate]
activity of candidates for the signal in inducing luminescence [1]: None of these compounds has activity

N[C@H]1CCOC1=O [homoserine lactone]
activity of candidates for the signal in inducing luminescence [1]: None of these compounds has activity

CC(=O)C(=O)C(O)CO (stereo not drawn) [AI-2, 4,5-dihydroxy-2,3-pentanedione]
change in galactosidase production of rck::MudJ [2]: No change | light production in response to exogenous autoinducer [3]: stimulated to produce light | acid and base stability of the activity [4]: acid stable and base labile | heat resistance of the activity [4]: heat resistant to about 80 but not 100 °C | acid and base stability of the activity ([4]; listed as signaling activity): acid stabile and base labile | heat resistance of the activity ([4]; listed as signaling activity): heat resistant to 80 but not 100 °C | acid and base stability of the activity ([4]; listed as signaling compound): acid stable and base labile | heat resistance of the activity ([4]; listed as signaling compound): heat resistant to 80 °C but not 100 °C | change of galactosidase activity of ftsQ1p2p-lacZ fusion [5]: did not change | stimulation in light production by AI-2 produced in vitro ([1]; dialyzed LuxS- cell extract + SAM + LuxS protein, 60 min, material with MW<5000): over 500 fold

CC(=O)O [acetate]
activity of candidates for the signal in inducing luminescence [1]: None of these compounds has activity

C[C@@H](O)CC(=O)N[C@H]1CCOC1=O [AI-1, N-(3-hydroxybutanoyl)-L-homoserine lactone, reference compound]
light production in response to exogenous autoinducer [3]: not | lowest concentration the assay was sensitive to [6]: 100 nM
